Here are results for 15 compounds from patent publication US12459958B2, “Tricyclic compounds as HPK1 inhibitor and the use thereof” (BEIGENE, LTD., priority 2019, dated 2025).

The assay concerns the target T1, HPK1 kinase (aa1-346, Life Technologies) (Homo sapiens, UniProt Q92918).
T1 construct: HPK1 kinase (aa1-346, Life Technologies); purchased Life Technologies
T1 sequence (Q92918 1-346): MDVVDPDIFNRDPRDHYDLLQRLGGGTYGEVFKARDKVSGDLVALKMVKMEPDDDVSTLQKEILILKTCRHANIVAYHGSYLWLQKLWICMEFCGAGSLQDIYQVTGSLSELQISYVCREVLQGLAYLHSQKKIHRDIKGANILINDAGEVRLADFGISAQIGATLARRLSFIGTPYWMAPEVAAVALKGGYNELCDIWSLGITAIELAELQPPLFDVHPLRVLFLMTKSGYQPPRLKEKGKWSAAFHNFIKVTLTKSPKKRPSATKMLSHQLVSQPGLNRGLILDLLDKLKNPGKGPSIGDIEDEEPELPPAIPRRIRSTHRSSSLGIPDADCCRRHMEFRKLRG
Description: HPK Kinase Activity Assay at 1 mM ATP (TR-FRET). Format: biochemical. To be noted: HPK1 kinase 40 nM, 0.5 μM STK1 substrate, read-out: Enzymatic activity IC50. On the procedure: HPK Kinase Activity Assay at 1 mM ATP
Compounds disclosed herein were tested for inhibition of HPK1 kinase (aa1-346, Life Technologies) activity in assays based on the time-resolved fluorescence-resonance energy transfer (TR-FRET) methodology. The assays were carried out in 384-well low volume black plates in a reaction mixture containing HPK1 kinase (40 nM), 1 mM ATP, 0.5 μM STK1 substrate and 0-10 μM compound in buffer containing 50 mM HEPES, 0.01% BSA, 0.1 mM Orthovanadate, 10 mM MgCl2, 1 mM DTT, pH=7.0, 0.005% Tween-20. The kinase was incubated with the compounds disclosed herein or DMSO for 60 minutes at room temperature and the reaction was initiated by the addition of ATP and STK1 substrate. After reaction at room temperature for 120 minutes, an equal volume of stop/detection solution was added according to the manufacture's instruction (CisBio). The stop/detection solution contained STK Antibody-Cryptate and XL665-conjugated streptavidin in Detection Buffer. The TR-FRET signals (ratio of fluorescence emission at 665 nm over emission at 620 nm with excitation at 337 nm wavelength) were recorded on a PHERAstar FS plate reader (BMG Labtech). Phosphorylation of STK1 substrate led to the binding of STK Antibody-Cryptate to the biotinylated STK1 substrate, which places fluorescent donor (Eu^3+ crypate) in close proximity to the accepter (Streptavidin-XL665), thus resulting in a high degree of fluorescence resonance energy transfer. The inhibition of HPK1 in presence of increasing concentrations of compounds was calculated based on the ratio of fluorescence at 665 nm to that at 620 nm. The IC50 for each compound was derived from fitting the data to the four-parameter logistic equation by Graphpad Prism software.
Background: In TR-FRET formats the signal depends on donor and acceptor labels being close together.

Each structure is given as a SMILES string.

In general, IC50 refers to the concentration at which inhibition is half-maximal. As to `Cc1cc(-c2cnc3[nH]cc(-c4ccc(C(=O)N(C)CC(C)(C)O)cc4)c3n2)cc2c1N1CCN(C)C[C@@H]1CC2` [Example 12B, (S)-4-(2-(3,10-dimethyl-2,3,4,4a,5,6-hexahydro-1H-pyrazino[1,2-a]quinolin-8-yl)-5H-pyrrolo[2,3-b]pyrazin-7-yl)-N-(2-hydroxy-2-methylpropyl)-N-methylbenzamide], the IC50 came out at 52 nM.
The figure for `Cc1cc(-c2c[nH]c3ncc(-c4cc(C)c5c(c4)CC[C@@H]4CN(C)CCN54)nc23)ccc1C(=O)N(C)CC(C)(C)O` [Example 13A, (R)-4-(2-(3,10-dimethyl-2,3,4,4a,5,6-hexahydro-1H-pyrazino[1,2-a]quinolin-8-yl)-5H-pyrrolo[2,3-b]pyrazin-7-yl)-N-(2-hydroxy-2-methylpropyl)-N,2-dimethylbenzamide] is 101 nM.
As to `Cc1cc(-c2cnc3[nH]cc(-c4ccc(C(=O)N(C)C[C@H](C)O)cc4)c3c2)cc2c1N1CCN(C)C[C@H]1CC2` [Example 2A, 4-(5-((R)-3,10-dimethyl-2,3,4,4a,5,6-hexahydro-1H-pyrazino[1,2-a]quinolin-8-yl)-1H-pyrrolo[2,3-b]pyridin-3-yl)-N—((S)-2-hydroxypropyl)-N-methylbenzamide], the IC50 worked out at 14 nM.
For `Cc1cc(-c2cnc3[nH]cc(-c4ccc(C(=O)N(C)C[C@@H]5CCOC5)cc4)c3c2)cc2c1N1CCN(C)C[C@@H]1CC2` [Example 4B, 4-(5-((S)-3,10-dimethyl-2,3,4,4a,5,6-hexahydro-1H-pyrazino[1,2-a]quinolin-8-yl)-1H-pyrrolo[2,3-b]pyridin-3-yl)-N-methyl-N—(((S)-tetrahydrofuran-3-yl)methyl)benzamide] the value was 15 nM; for `Cc1cc(-c2cnc3[nH]cc(-c4ccc(C(=O)N(C)C)cc4)c3c2)cc2c1N1CCN(C)CC1CC2` (stereo not drawn) [Example 1, 4-(5-(3,10-dimethyl-2,3,4,4a,5,6-hexahydro-1H-pyrazino[1,2-a]quinolin-8-yl)-1H-pyrrolo[2,3-b]pyridin-3-yl)-N,N-dimethylbenzamide], 31 nM; for `Cc1cc(-c2c[nH]c3ncc(-c4cc(C)c5c(c4)CC[C@@H]4CN(C)CCN54)nc23)ccc1C(=O)N(C)C` [Example 6A, (R)-4-(2-(3,10-dimethyl-2,3,4,4a,5,6-hexahydro-1H-pyrazino[1,2-a]quinolin-8-yl)-5H-pyrrolo[2,3-b]pyrazin-7-yl)-N,N,2-trimethylbenzamide], 36 nM.
The figure for `Cc1cc(-c2cnc3[nH]cc(-c4ccc(C(=O)N5CC6(COC6)C5)cc4)c3n2)cc2c1N1CCN(C)C[C@@H]1CC2` [Example 9B, (S)-(4-(2-(3,10-dimethyl-2,3,4,4a,5,6-hexahydro-1H-pyrazino[1,2-a]quinolin-8-yl)-5H-pyrrolo[2,3-b]pyrazin-7-yl)phenyl)(2-oxa-6-azaspiro[3.3]heptan-6-yl)methanone] is 21 nM.
Regarding `Cc1cc(-c2cnc3[nH]cc(-c4ccc(C(=O)N(C)C[C@@H](C)O)cc4)c3c2)cc2c1N1CCN(C)C[C@@H]1CC2` [Example 3B, 4-(5-((S)-3,10-dimethyl-2,3,4,4a,5,6-hexahydro-1H-pyrazino[1,2-a]quinolin-8-yl)-1H-pyrrolo[2,3-b]pyridin-3-yl)-N—((R)-2-hydroxypropyl)-N-methylbenzamide], the IC50 amounted to 18 nM.
For `Cc1cc(-c2cnc3[nH]cc(-c4ccc(C(=O)N(C)C[C@@H]5CCOC5)cc4)c3c2)cc2c1N1CCN(C)C[C@H]1CC2` [Example 4A, 4-(5-((R)-3,10-dimethyl-2,3,4,4a,5,6-hexahydro-1H-pyrazino[1,2-a]quinolin-8-yl)-1H-pyrrolo[2,3-b]pyridin-3-yl)-N-methyl-N—(((S)-tetrahydrofuran-3-yl)methyl)benzamide] the value was 14 nM; for `Cc1cc(-c2cnc3[nH]cc(-c4ccc(C(=O)N5CC6(COC6)C5)cc4)c3n2)cc2c1N1CCN(C)C[C@H]1CC2` [Example 9A, (R)-(4-(2-(3,10-dimethyl-2,3,4,4a,5,6-hexahydro-1H-pyrazino[1,2-a]quinolin-8-yl)-5H-pyrrolo[2,3-b]pyrazin-7-yl)phenyl)(2-oxa-6-azaspiro[3.3]heptan-6-yl)methanone], 17 nM.
Turning to `Cc1cc(-c2c[nH]c3ncc(-c4cc(C)c5c(c4)CC[C@H]4CN(C)CCN54)nc23)ccc1C(=O)N(C)CC(C)(C)O` [Example 13B, (S)-4-(2-(3,10-dimethyl-2,3,4,4a,5,6-hexahydro-1H-pyrazino[1,2-a]quinolin-8-yl)-5H-pyrrolo[2,3-b]pyrazin-7-yl)-N-(2-hydroxy-2-methylpropyl)-N,2-dimethylbenzamide], the IC50 was determined as 96 nM.
The figure for `Cc1cc(-c2c[nH]c3ncc(-c4cc(C)c5c(c4)CC[C@@H]4CN(C)CCN54)nc23)ccc1C(=O)N(C)C[C@@H]1CCOC1` [Example 11A, 4-(2-((R)-3,10-dimethyl-2,3,4,4a,5,6-hexahydro-1H-pyrazino[1,2-a]quinolin-8-yl)-5H-pyrrolo[2,3-b]pyrazin-7-yl)-N,2-dimethyl-N—(((S)-tetrahydrofuran-3-yl)methyl)benzamide] is 52 nM.
For `Cc1cc(-c2cnc3[nH]cc(-c4ccc(C(=O)N(C)C[C@H]5CCOC5)cc4)c3c2)cc2c1N1CCN(C)C[C@@H]1CC2` [Example 5B, 4-(5-((S)-3,10-dimethyl-2,3,4,4a,5,6-hexahydro-1H-pyrazino[1,2-a]quinolin-8-yl)-1H-pyrrolo[2,3-b]pyridin-3-yl)-N-methyl-N—(((R)-tetrahydrofuran-3-yl)methyl)benzamide] the value was 27 nM; for `Cc1cc(-c2cnc3[nH]cc(-c4ccc(C(=O)N(C)C[C@H]5CCOC5)cc4)c3c2)cc2c1N1CCN(C)C[C@H]1CC2` [Example 5A, 4-(5-((R)-3,10-dimethyl-2,3,4,4a,5,6-hexahydro-1H-pyrazino[1,2-a]quinolin-8-yl)-1H-pyrrolo[2,3-b]pyridin-3-yl)-N-methyl-N—(((R)-tetrahydrofuran-3-yl)methyl)benzamide], 32 nM; for `Cc1cc(-c2cnc3[nH]cc(-c4ccc(C(=O)N(C)C[C@@H]5CCOC5)cc4)c3n2)cc2c1N1CCN(C)C[C@@H]1CC2` [Example 10B, 4-(2-((S)-3,10-dimethyl-2,3,4,4a,5,6-hexahydro-1H-pyrazino[1,2-a]quinolin-8-yl)-5H-pyrrolo[2,3-b]pyrazin-7-yl)-N-methvl-N—(((S)-tetrahydrofuran-3-yl)methyl)benzamide], 17 nM.
